The test system of data set [1] is Caco-2 cells (clone C2BBe1). Put plainly: CACO-2 permeability. The data set is classed as in vitro ADME. On the set-up: unit not given here. The conditions noted are these: for DM Caco2 A to B: apical to basolateral, donor pH 6.5, receiver pH 7.4; for DM Caco2 B to A: basolateral to apical. The procedure: Pre-plated Caco-2 cells (clone C2BBel) were obtained from Sigma-Aldrich, Inc. (Atlanta, GA). Cell monolayers were grown to confluence on collagen-coated, microporous, polycarbonate membranes in 24-well transwell plates for 21 days. The permeability assay buffer in donor wells was Hanks' balanced salt solution (HBSS) containing 10 mM HEPES and 15 mM glucose at a pH of 6.5 containing 200 μM BNPP. The receiver wells used HBSS buffer containing 10 mM HEPES and 15 mM glucose at a pH of 7.4 and supplemented with 1°% BSA. After an initial equilibration with transport buffer, TEER values were read to test membrane integrity. The experiment was started by the addition of buffers containing test compounds, 200 μl and 1000 μl in the apical and basolateral chamber, respectively. At 0- and 2-hour post dose, 10 μL was sampled from donor compartment and was immediately diluted in 190 μL of 20% methanol. At 1 and 2 hours post dose, 100 μl of solution was taken from the receiver compartments and was immediately diluted in 100 μl of 20% methanol. Removed buffer was replaced with fresh buffer and a correction was applied to all calculations for the removed material. Each compound was tested in 2 separate replicate wells for each condition. All samples were then extracted with 400 μl 100% acetonitrile with internal standard to precipitate protein. Cells were dosed on the apical or basolateral side to determine forward (A to B) and reverse (B to A) permeability. To test for non-specific binding and compound instability, the total amount of drug was quantitated at the end of the experiment and compared to the material present in the original dosing solution as a percent recovery. […] Samples were analyzed by LC-MS/MS.
For orientation: Passage across Caco-2 layers is used to estimate intestinal permeability.

For data set [2], the system named is Respiratory syncytial virus recombinant with luciferase (RSV-Luc5) in Normal Human Bronchial Epithelial (NHBE) cells. Briefly: microbe, parasite or virus in culture. Type of data set: cell-based. The conditions noted are these: 72 h, read-out: RSV NHBE EC50.
The nature of the next data set: Plasma stability. Type of data set: in vitro ADME. On the set-up: unit not given here. Conditions: 37° C., 2 μM substrate. The procedure: At 0.05, 0.5, 1, 2, 3 and 4 hr, […] aliquots of the reaction mixture were transferred to plates containing […] of IS/Q quenching solution. After quenching, the plates were centrifuged at 3000 g for 30 minutes, and 150 μL supernatant was diluted with 150 μL water. Aliquots ([…]) of the diluted supernatant were analyzed on a Thermo Q-Exactive mass spectrometer as described below.
Mobile phase A consisted of 0.1% (v/v) formic acid in water. Mobile phase B consisted of 0.1% (v/v) formic acid in acetonitrile. Elution of analytes was achieved by a series of linear gradients of acetonitrile in water containing 0.1°(v/v) formic acid. The mass spectrometer was calibrated on a weekly basis and mass tolerance of 5 ppm was used.

Data set [3] deals with SARS Coronavirus 2 recombinant with NanoLuc (SARS-CoV2-NLuc) in A549-hACE2 cells. Put plainly: organism not typed. The data set is classed as cell-based. The conditions noted are these: 48 h; read-out: SARS-CoV2 EC50.
Data set [4] is described as follows: GI S9 stability - no PMSF. The data set is classed as in vitro ADME. Conditions: human intestinal S9, PMSF-free; for half-life at 2 µM: pH 7.4, read-out: GIS9-HUMAN-NoPMSF T1/2. Also on record: GIS9-HUMAN-NoPMSF T1/2: unit: min. As for the experimental part: Duplicate aliquots of test compound or positive control substrate (GS-7340) were added to S9 stock diluted with 100 mM phosphate buffered saline, pH 7.4, to obtain a protein concentration of 1.0 mg/mL. The S9 metabolic reactions were initiated by the addition of the substrates to the S9 reaction mixture to a final concentration of 2 μM. At 0, 10, 20, 30, 60 and 120 min, […] aliquots of the reaction mixture were transferred to plates containing […] of IS/Q solution. After quenching, the plates were centrifuged at 3000 g for 30 minutes, and 150 μL aliquots of each supernatant were diluted with 150 μL water. Aliquots ([…]) of the diluted supernatant were analyzed on a Thermo Q-Exactive mass spectrometer as described below. GI S9 Stability—No phenylmethylsulfonyl fluoride (PMSF): Similar to the procedure described above, test compounds were incubated at 2 μM with 1 mg/mL PMSF-free Intestinal S9 fractions. Samples are removed at 6 time points over the course of a 120 min experiment and the parent compound disappreance and reference compound A formation is determined by mass spectrometry.
Example K: Liquid Chromatography/Mass Spectroscopy Methods for S9 and Plasma Stability
Quantification of test compounds, Reference Compound A (S9 stability assay nucleoside metabolite), and controls was performed by analyte/internal standard peak area ratio (PAR) values measured on a Thermo Q-Exactive mass spectrometer coupled to a Dionex UltiMate 3000 HPLC with a Leap Technologies HTC PAL autosampler. The column used for analysis of test compounds and Reference Compound A was a Waters Acquity BEH C18 ([…] particle size, 2.1′50 mm). The column used for control (GS-7340) was a Thermo Hypersil GOLD ([…] particle size, 2.1′50 mm). Mobile phase A consisted of 0.1% (v/v) formic acid in water. Mobile phase B consisted of 0.1% (v/v) formic acid in acetonitrile. Elution of analytes was achieved by a series of linear gradients of acetonitrile in water containing 0.1°(v/v) formic acid. The mass spectrometer was calibrated on a weekly basis and mass tolerance of 5 ppm was used.

Data set [5] in a line: CC50 MT4 cytotoxicity (Cell-Titer Glo). Type of data set: cell-based. The conditions noted are these: human. As for the experimental part:
Cytotoxicity of the compounds was determined in uninfected cells using the cell viability reagent in a similar fashion as described before for other cell types (Cihlar et al., Antimicrob Agents Chemother. 2008, 52(2):655-65). HEp-2 (1.5×10^3 cells/well) and MT-4 (2×10^3 cells/well) cells were plated in 384-well plates and incubated with the appropriate medium containing 3-fold serially diluted compound ranging from 15 nM to 100,000 nM. Cells were cultured for 4-5 days at 37° C. Following the incubation, the cells were allowed to equilibrate to 25° C., and cell viability was determined by adding Cell-Titer Glo viability reagent. The mixture was incubated for 10 min, and the luminescence signal was quantified using an Envision plate reader. Untreated cell and cells treated at 2 μM puromycin (Sigma, St. Louis, MO) serve as 100% and 0% cell viability control, respectively. The percent of cell viability was calculated for each tested compound concentration relative to the 0% and 100% controls and the CCso value was determined by non-linear regression as a compound concentration reducing the cell viability by 50%.

Molecules are shown by their SMILES. pEC50: −log10 of the molar value.

Regarding `CC(=O)OC[C@H]1O[C@@](C#N)(c2ccc3c(N)ncnn23)[C@H](OC(C)=O)[C@@H]1OC(C)=O` [3rd Reference Ester Compound], in data set [1], the “DM Caco2 A to B” value worked out at 5.07 and the “DM Caco2 B to A” value turned out to be 8.91.
Consider `N#C[C@@]1(c2ccc3c(N)ncnn23)O[C@H](COC(=O)OC2CCC2)[C@@H](O)[C@H]1O` [Compound 37, ((2R,3S,4R,5R)-5-(4-aminopyrrolo[2,1-f][1,2,4]triazin-7-yl)-5-cyano-3,4-dihydroxytetrahydrofuran-2-yl)methyl cyclobutyl carbonate], for which the negative logarithm of the EC50 (pEC50) in data set [2] was 5.32. For the same molecule, in data set [1], the “DM Caco2 A to B” value was determined as 0.5 and the “DM Caco2 B to A” value was 7.54. The “STA Human Plasma 37” value in the data set “Plasma stability” is on record as 53. Also, in data set [3], the negative-log EC50 (pEC50) is 5.50. The half-life at 2 µM in data set [4] is 35.3 s. In data set [5], this molecule came in with a CC50 of more than 50 µM.
As for `CC1(OC(=O)OC[C@H]2O[C@@](C#N)(c3ccc4c(N)ncnn34)[C@H](O)[C@@H]2O)CCCCCC1` [Compound 55, ((2R,3S,4R,5R)-5-(4-aminopyrrolo[2,1-f][1,2,4]triazin-7-yl)-5-cyano-3,4-dihydroxytetrahydrofuran-2-yl)methyl (1-methylcycloheptyl) carbonate], in data set [2], the negative-log EC50 (pEC50) was 5.87. Further, in data set [1], the “DM Caco2 A to B” value turned out to be 0.38 and the “DM Caco2 B to A” value is on record as 1.89. Moreover, the “STA Human Plasma 37” value in the data set “Plasma stability” is listed as 75.665. The negative-log EC50 (pEC50) in data set [3] was 5.54. For the same molecule, the half-life at 2 µM in data set [4] was 35.8 s. The molecule further registered a CC50 in data set [5] of more than 50 µM.
Turning to `CC1(OC(=O)OC[C@H]2O[C@@](C#N)(c3ccc4c(N)ncnn34)[C@H](O)[C@@H]2O)CCCCCCC1` [Compound 57, ((2R,3S,4R,5R)-5-(4-aminopyrrolo[2,1-f][1,2,4]triazin-7-yl)-5-cyano-3,4-dihydroxytetrahydrofuran-2-yl)methyl (1-methylcyclooctyl) carbonate], the pEC50 is 5.61 in data set [2] and 5.64 in data set [3]. Moreover, the “STA Human Plasma 37” value in the data set “Plasma stability” was 317.5. The same molecule returned a CC50 in data set [5] of more than 50 µM.
As for `C=CCOC(=O)OC[C@H]1O[C@@](C#N)(c2ccc3c(N)ncnn23)[C@H](O)[C@@H]1O` [Compound 64, Ally (((2R,3S,4R,5R)-5-(4-aminopyrrolo[2,1-f][1,2,4]triazin-7-yl)-5-cyano-3,4-dihydroxytetrahydrofuran-2-yl)methyl) carbonate], the pEC50 in data set [2] was 5.58; in data set [3], 5.38. Moreover, in data set [1], the “DM Caco2 A to B” value worked out at 0.39. For the same molecule, the “DM Caco2 B to A” value in data set [1] came out at 4.6. In addition, the “STA Human Plasma 37” value in the data set “Plasma stability” was 3. Also, the half-life at 2 µM in data set [4] stood at 59.6 s. Further, the CC50 in data set [5] was more than 50 µM.
In the case of `CC(C)C(C)(C)OC(=O)OC[C@H]1O[C@@](C#N)(c2ccc3c(N)ncnn23)[C@H](O)[C@@H]1O` [Compound 68, ((2R,3S,4R,5R)-5-(4-aminopyrrolo[2,1-f][1,2,4]triazin-7-yl)-5-cyano-3,4-dihydroxytetrahydrofuran-2-yl)methyl (2,3-dimethylbutan-2-yl) carbonate], in data set [2], the pEC50 is 5.89. Also, in data set [1], the “DM Caco2 A to B” value was found to be 0.98 and the “DM Caco2 B to A” value came to 7.09. Moreover, the “STA Human Plasma 37” value in the data set “Plasma stability” is reported as 266.43. In addition, in data set [3], the negative-log EC50 (pEC50) was 5.50. The half-life at 2 µM in data set [4] is 2760 s. The CC50 in data set [5] was more than 50 µM.
With `CC(C)(OC(=O)OC[C@H]1O[C@@](C#N)(c2ccc3c(N)ncnn23)[C@H](O)[C@@H]1O)c1ccccn1` [Compound 98, [(2R,3S,4R,5R)-5-(4-aminopyrrolo[2,1-f][1,2,4]triazin-7-yl)-5-cyano-3,4-dihydroxy-tetrahydrofuran-2-yl]methyl [1-methyl-1-(2-pyridyl)ethyl] carbonate], in data set [2], the pEC50 is 5.05. Besides, in data set [1], the “DM Caco2 A to B” value amounted to 0.02 and the “DM Caco2 B to A” value was 5.65. In the data set “Plasma stability”, the “STA Human Plasma 37” value stood at 884.09. In data set [4], the “GIS9-HUMAN-NoPMSF T1/2” value is recorded as 789.
For the molecule `CC(C)(OC(=O)OC[C@H]1O[C@@](C#N)(c2ccc3c(N)ncnn23)[C@H](O)[C@@H]1O)c1cccnc1` [Compound 99, [(2R,3S,4R,5R)-5-(4-aminopyrrolo[2,1-f][1,2,4]triazin-7-yl)-5-cyano-3,4-dihydroxy-tetrahydrofuran-2-yl]methyl [1-methyl-1-(3-pyridyl)ethyl] carbonate], the negative-log EC50 (pEC50) in data set [2] is 5.50. Also, in data set [1], the “DM Caco2 A to B” value is listed as 0.11 and the “DM Caco2 B to A” value is reported as 2.47. In the data set “Plasma stability”, the “STA Human Plasma 37” value turned out to be 173.49. Also, in data set [4], the half-life at 2 µM was 5800 s.
Take `COC(=O)OC[C@H]1O[C@@](C#N)(c2ccc3c(N)ncnn23)[C@@H]2OC(=O)O[C@@H]21` [Compound 127, ((3aR4R,6R,6aR)-6-(4-aminopyrrolo[2,1-f][1,2,4]triazin-7-yl)-6-cyano-2-oxotetrahydrofuro[3,4-d][1,3]dioxol-4-yl)methyl methyl carbonate]: the negative logarithm of the EC50 (pEC50) was 5.30 in data set [2] and 4.86 in data set [3]. In the data set “Plasma stability”, the “STA Human Plasma 37” value is recorded as 12.071. In data set [4], the half-life at 2 µM stood at 57.4 s. The same molecule displayed a CC50 in data set [5] of more than 50 µM.
For `C=CCCC(=O)O[C@H]1[C@@H](OC(=O)CCC=C)[C@](C#N)(c2ccc3c(N)ncnn23)O[C@@H]1COC(=O)OC(C)C` [Compound 134, (2R,3R,4R,5R)-2-(4-aminopyrrolo[2,1-f][1,2,4]triazin-7-yl)-2-cyano-5-(((isopropoxycarbonyl)oxy)methyl)tetrahydrofuran-3,4-diyl bis(pent-4-enoate)], the negative logarithm of the EC50 (pEC50) in data set [2] was 5.85; in data set [3], 5.29. For the same molecule, in “Plasma stability”, the “STA Human Plasma 37” value worked out at 65.405. Besides, the CC50 in data set [5] is more than 50 µM.
As to `N#C[C@@]1(c2ccc3c(N)ncnn23)O[C@H](CO)[C@@H](O)[C@H]1O` [Reference Compound A, (2R,3R,4S,5R)-2-(4-aminopyrrolo[2,1-f][1,2,4]triazin-7-yl)-3,4-dihydroxy-5-(hydroxymethyl)tetrahydrofuran-2-carbonitrile, reference compound], in data set [1], the “DM Caco2 A to B” value was determined as 0.12 and the “DM Caco2 B to A” value is 1.52.

One may read the pEC50 as the negative decadic logarithm of the EC50, by convention in mol/L. The term CC50 denotes the concentration giving 50% cytotoxicity.

The values are drawn from US12448383B2, “Compounds and methods for treatment of viral infections” (priority 2022, dated 2025).
